From article PMC3409651 (Journal of agricultural and food chemistry, 2012)

Columns and labels:
[1] = tested on: Sult in FVB mouse liver S9 fraction; assay: Sult activity measurements; type: in vitro ADME
[2] = Chemical stability of the tested compounds in potassium phosphate buffer; type: physicochemical; conditions: 50 mM potassium phosphate buffer (pH 7.4) at 37°C with 0.1% vitamin C
[3] = tested on: SULTs in human liver and duodenum S9 fractions; conditions: cited from earlier work
[4] = tested on: Ugt in FVB mouse liver S9 fraction; conditions: male, 10 µM, pH 7.4
Ugt = Ugt activity measurements; conditions: male, FVB, mouse, liver S9 fraction, pH 7.4
Sult and Ugt = assay: Sult-Ugt co-reaction system; type: in vitro ADME; conditions: male, FVB, mouse, liver S9 fraction
Sult = Sult activity measurements; type: in vitro ADME, mouse; conditions: male, FVB, mouse, liver S9 fraction, pH 7.4
[5] = 10 µM substrate, Sult single reaction, FVB mice liver S9 fraction, n=3

time stable in buffer (chemical stability) [2] [min]	Structure (SMILES)	sulfation rate [1, 5]	also measured
30 to 90	O=c1cc(-c2ccc(O)cc2)oc2ccccc12 [4’-HF, 4’-hydroxyflavone]	0.0793 ± 0.0031 nmol per min per mg of protein	–
30 to 90	O=c1c(O)c(-c2ccc(O)cc2)oc2ccccc12 [3,4’-diHF, 3,4’-dihydroxyflavone]	–	–
30 to 90	O=c1cc(-c2ccccc2O)oc2ccccc12 [2’-HF, 2’-hydroxyflavone]	0.0719 ± 0.0030 nmol per min per mg of protein	–
30 to 90	O=c1cc(-c2cccc(O)c2)oc2ccccc12 [3’-HF, 3’-hydroxyflavone]	0.0312 ± 0.0095 nmol per min per mg of protein	–
30 to 90	O=c1cc(-c2ccccc2)oc2ccc(O)cc12 [6-HF, 6-hydroxyflavone]	0.0211 ± 0.0002 nmol per min per mg of protein	–

More lines, now with the values behind:

Structure (SMILES)	time stable in buffer (chemical stability) [2] [min]	sulfation rate [1, 5]	also measured
O=c1cc(-c2ccccc2)oc2cccc(O)c12 [5-HF, 5-hydroxyflavone]	–	–	sulfation rate ([1]; male, FVB, mouse, 10 µM, pH 7.4): 0.0524 ± 0.0019 nmol per min per mg of protein
O=c1cc(-c2ccccc2)oc2cc(O)ccc12 [7-HF, 7-hydroxyflavone]	30 to 90	0.0998 ± 0.0061 nmol per min per mg of protein	sulfation by SULTs (in words) [3]: sulfated
O=c1cc(-c2ccccc2)oc2cc(O)cc(O)c12 [5,7-diHF, 5,7-dihydroxyflavone]	–	–	glucuronidation rate, 5-O-G [4]: 0.00 ± 0.00 nmol per min per mg of protein; glucuronidation rate, 7-O-G [4]: 1.0763 ± 0.0399 nmol per min per mg of protein; formation rate of 7-O-sulfate ([1]; male, FVB, mouse, 5 µM, pH 7.4): 0.0387 ± 0.0025 nmol per min per mg of protein
O=c1cc(-c2ccccc2)oc2cc(O)c(O)cc12 [6,7-diHF, 6,7-dihydroxyflavone]	–	–	half-life at 10 µM (Ugt): 26.8 ± 1.32 min; half-life at 10 µM (Sult and Ugt): 21.2 ± 2.03 min; half-life at 10 µM (Sult): 244 ± 36.8 min
O=c1c(O)c(-c2ccccc2)oc2ccccc12 [3-HF, 3-hydroxyflavone]	30 to 90	0.00 ± 0.00 nmol per min per mg of protein	sulfation by FVB mice liver S9 fraction (in words) ([1]; 5, 10 and 40 µM substrate, Sult single reaction): not sulfated
